# From patent publication US10442803B2, “Tricyclic heterocycles as bet protein inhibitors” (Incyte Corporation, priority 2013, dated 2019)
# Counter-ions that a name gives are not always drawn.
# System: KMS.12.BM cells
# Experiment: KMS.12.BM cell viability assay
# Type: cell-based
# Settings: 72 h; KMS.12.BM human myeloma cells, 3 days, Cell Titer-GLO ATP quantitation; read-out: KMS cellular IC50
# Outline: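 IC50 derived from luminescent ATP quantitation (Cell Titer-GLO) of viable cells after 3-day compound treatment. KMS.12.BM human myeloma line seeded at 5000 cells/well in RPMI with 10% FBS.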
row,Structure (SMILES),IC50 [nM]
1,"Cc1nnc2ccc3c(cc(C(=O)NCc4ccncc4)n3Cc3cccc(Cl)c3)n12 [Example 130, 6-(3-Chlorobenzyl)-1-methyl-N-(pyridin-4-ylmethyl)-6H-pyrrolo[2,3-e][1,2,4]triazolo[4,3-a]pyridine-7-carboxamide bis(trifluoroacetate) salt]",≤ 1000
2,"CNC(=O)c1cc2c(ccc3nnc(C)n32)n1Cc1cc(Cl)cc(CN2CCC2)c1 [Example 131, 6-[3-(Azetidin-1-ylmethyl)-5-chlorobenzyl]-N,1-dimethyl-6H-pyrrolo[2,3-e][1,2,4]triazolo[4,3-a]pyridine-7-carboxamide bis(trifluoroacetate) salt]",≤ 1000
3,"CNC(=O)c1cc2c(ccc3nnc(C)n32)n1Cc1cc(Cl)cc(CN2CCCC2)c1 [Example 132, 6-[3-Chloro-5-(pyrrolidin-1-ylmethyl)benzyl]-N,1-dimethyl-6H-pyrrolo[2,3-e][1,2,4]triazolo[4,3-a]pyridine-7-carboxamide 2.5×(trifluoroacetate) salt]",≤ 1000
4,"CCNC(=O)c1cc2c(ccc3nnc(C)n32)n1Cc1cc(Cl)cc(CN2CCCC2)c1 [Example 133, 6-[3-Chloro-5-(pyrrolidin-1-ylmethyl)benzyl]-N-ethyl-1-methyl-6H-pyrrolo[2,3-e][1,2,4]triazolo[4,3-a]pyridine-7-carboxamide bis(trifluoroacetate) salt]",≤ 1000
5,"CNC(=O)c1cc2c(ccc3nnc(C)n32)n1Cc1cc(Cl)cc(CN2CCC(F)(F)C2)c1 [Example 134, 6-{3-Chloro-5-[(3,3-difluoropyrrolidin-1-yl)methyl]benzyl}-N,1-dimethyl-6H-pyrrolo[2,3-e][1,2,4]triazolo[4,3-a]pyridine-7-carboxamide 2.4×(trifluoroacetate) salt]",≤ 1000
6,"CNC(=O)c1cc2c(ccc3nnc(C)n32)n1Cc1cc(Cl)cc(CN2CC(C)(C)C2)c1 [Example 135, 6-{3-Chloro-5-[(3,3-dimethylazetidin-1-yl)methyl]benzyl}-N,1-dimethyl-6H-pyrrolo[2,3-e][1,2,4]triazolo[4,3-a]pyridine-7-carboxamide bis(trifluoroacetate) salt]",≤ 1000
7,"CNC(=O)c1cc2c(ccc3nnc(C)n32)n1Cc1cccc(C(F)(F)F)c1 [Example 136, N,1-dimethyl-6-[3-(trifluoromethyl)benzyl]-6H-pyrrolo[2,3-e][1,2,4]triazolo[4,3-a]pyridine-7-carboxamide trifluoroacetate salt]",≤ 1000
8,"CCNC(=O)c1cc2c(ccc3nnc(C)n32)n1Cc1cccc(C(F)(F)F)c1 [Example 137, N-Ethyl-1-methyl-6-[3-(trifluoromethyl)benzyl]-6H-pyrrolo[2,3-e][1,2,4]triazolo[4,3-a]pyridine-7-carboxamide trifluoroacetate salt]",≤ 1000
9,"CNC(=O)Nc1cc2c(cc(C)n2Cc2cc(Cl)cc(CN3CCCC3)c2)n2c(C)nnc12 [Example 142, N-{6-[3-Chloro-5-(pyrrolidin-1-ylmethyl)benzyl]-1,7-dimethyl-6H-pyrrolo[2,3-e][1,2,4]triazolo[4,3-a]pyridin-4-yl}-N′-methylurea bis(trifluoroacetate) salt]",≤ 1000
10,"Cc1nnc2ccc3c(cc(-c4ncco4)n3Cc3ccccc3)n12 [Example 143, 6-benzyl-1-methyl-7-(1,3-oxazol-2-yl)-6H-pyrrolo[2,3-e][1,2,4]triazolo[4,3-a]pyridine trifluoroacetate salt]",≤ 1000
11,"Cc1cc2c(cc(NC3CCOCC3)c3nnc(C)n32)n1Cc1ccccc1 [Example 146, 6-benzyl-1,7-dimethyl-N-(tetrahydro-2H-pyran-4-yl)-6H-pyrrolo[2,3-e][1,2,4]triazolo[4,3-a]pyridin-4-amine]",1000 to 10000
12,"Cc1cc2c(cc(N[C@@H]3CCOC3)c3nnc(C)n32)n1Cc1ccccc1 [Example 147, 6-benzyl-1,7-dimethyl-N-[(3R)-tetrahydrofuran-3-yl]-6H-pyrrolo[2,3-e][1,2,4]triazolo[4,3-a]pyridin-4-amine]",1000 to 10000
